Test results reported in patent US9302988B2, “Fluoromethyl-substituted pyrrole carboxamides” (GRÜNENTHAL GMBH, priority 2012, dated 2016).

These compounds were tested against T1, Human CaV2.2 channels (Homo sapiens, UniProt Q00975) (assay: Fluorescent assay for CaV2.2 channels using potassium depolarization to induce channel opening (FLIPR, Fluo-4)). Conditions: 3 μM test compound, 30 mM KCl, HEK293 cells stably expressing human CaV2.2; read-out: %-Inhib (CaV2.2) @3 μM @30 mM KCl.
T1 construct: expressed in transfected cells
T1 sequence (Q00975 whole entry): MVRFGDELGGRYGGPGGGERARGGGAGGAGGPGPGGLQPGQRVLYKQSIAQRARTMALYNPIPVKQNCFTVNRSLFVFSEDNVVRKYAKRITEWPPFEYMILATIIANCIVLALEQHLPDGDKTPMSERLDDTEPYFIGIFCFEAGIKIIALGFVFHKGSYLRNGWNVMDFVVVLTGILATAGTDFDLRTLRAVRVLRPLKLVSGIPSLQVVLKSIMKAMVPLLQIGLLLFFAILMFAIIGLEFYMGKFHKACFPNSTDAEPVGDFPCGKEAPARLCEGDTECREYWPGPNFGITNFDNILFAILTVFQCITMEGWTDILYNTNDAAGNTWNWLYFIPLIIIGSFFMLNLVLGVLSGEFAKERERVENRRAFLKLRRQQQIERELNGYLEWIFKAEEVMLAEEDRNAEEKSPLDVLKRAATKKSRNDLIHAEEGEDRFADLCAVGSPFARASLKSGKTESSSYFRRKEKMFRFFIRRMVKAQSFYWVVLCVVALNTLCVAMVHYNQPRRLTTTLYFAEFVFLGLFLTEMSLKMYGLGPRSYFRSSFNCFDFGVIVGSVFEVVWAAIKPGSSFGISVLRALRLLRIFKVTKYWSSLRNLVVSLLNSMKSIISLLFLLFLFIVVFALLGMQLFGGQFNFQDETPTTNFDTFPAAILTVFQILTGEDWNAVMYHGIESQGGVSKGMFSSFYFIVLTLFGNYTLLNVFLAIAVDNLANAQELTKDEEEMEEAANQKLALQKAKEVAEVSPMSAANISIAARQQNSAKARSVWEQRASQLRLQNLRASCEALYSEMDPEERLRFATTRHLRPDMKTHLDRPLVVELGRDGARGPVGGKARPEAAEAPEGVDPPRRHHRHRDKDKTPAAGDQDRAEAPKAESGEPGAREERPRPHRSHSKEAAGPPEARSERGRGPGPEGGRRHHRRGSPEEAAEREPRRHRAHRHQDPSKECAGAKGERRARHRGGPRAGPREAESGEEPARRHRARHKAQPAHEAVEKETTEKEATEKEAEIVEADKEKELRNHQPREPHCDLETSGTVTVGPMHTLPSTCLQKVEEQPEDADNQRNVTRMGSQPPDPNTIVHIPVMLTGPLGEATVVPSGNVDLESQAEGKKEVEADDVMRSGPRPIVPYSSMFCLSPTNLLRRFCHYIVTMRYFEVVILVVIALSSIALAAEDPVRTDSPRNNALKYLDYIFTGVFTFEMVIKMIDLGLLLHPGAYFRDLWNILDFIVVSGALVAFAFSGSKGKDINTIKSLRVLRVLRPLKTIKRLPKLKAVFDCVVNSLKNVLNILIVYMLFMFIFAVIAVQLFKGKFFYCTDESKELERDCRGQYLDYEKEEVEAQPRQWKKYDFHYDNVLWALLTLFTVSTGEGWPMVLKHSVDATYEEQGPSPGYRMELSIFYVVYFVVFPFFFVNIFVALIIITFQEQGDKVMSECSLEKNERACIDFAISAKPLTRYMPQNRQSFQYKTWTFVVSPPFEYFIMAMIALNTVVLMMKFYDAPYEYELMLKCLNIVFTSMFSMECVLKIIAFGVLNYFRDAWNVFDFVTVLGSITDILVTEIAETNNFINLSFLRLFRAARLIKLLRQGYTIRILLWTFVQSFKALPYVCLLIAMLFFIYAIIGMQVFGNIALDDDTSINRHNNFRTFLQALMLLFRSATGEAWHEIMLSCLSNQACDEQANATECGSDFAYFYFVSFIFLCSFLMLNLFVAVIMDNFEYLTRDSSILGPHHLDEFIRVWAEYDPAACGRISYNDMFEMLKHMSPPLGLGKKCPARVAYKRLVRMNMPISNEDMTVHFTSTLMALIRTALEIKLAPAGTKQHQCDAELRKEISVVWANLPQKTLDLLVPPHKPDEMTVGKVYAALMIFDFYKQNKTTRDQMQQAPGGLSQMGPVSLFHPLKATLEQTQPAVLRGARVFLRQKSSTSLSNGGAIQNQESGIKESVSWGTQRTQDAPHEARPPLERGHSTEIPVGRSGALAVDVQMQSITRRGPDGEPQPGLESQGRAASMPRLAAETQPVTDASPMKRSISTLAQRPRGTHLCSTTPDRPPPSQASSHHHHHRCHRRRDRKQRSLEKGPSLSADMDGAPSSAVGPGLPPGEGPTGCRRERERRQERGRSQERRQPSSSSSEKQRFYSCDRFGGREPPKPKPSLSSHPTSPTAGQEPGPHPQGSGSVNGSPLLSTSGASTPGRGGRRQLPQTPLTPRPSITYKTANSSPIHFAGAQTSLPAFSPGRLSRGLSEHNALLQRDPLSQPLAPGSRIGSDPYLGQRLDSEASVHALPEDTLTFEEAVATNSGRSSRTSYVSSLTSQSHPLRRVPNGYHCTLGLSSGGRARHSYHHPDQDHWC
T1 sequence (P54289 25-1103, further chain): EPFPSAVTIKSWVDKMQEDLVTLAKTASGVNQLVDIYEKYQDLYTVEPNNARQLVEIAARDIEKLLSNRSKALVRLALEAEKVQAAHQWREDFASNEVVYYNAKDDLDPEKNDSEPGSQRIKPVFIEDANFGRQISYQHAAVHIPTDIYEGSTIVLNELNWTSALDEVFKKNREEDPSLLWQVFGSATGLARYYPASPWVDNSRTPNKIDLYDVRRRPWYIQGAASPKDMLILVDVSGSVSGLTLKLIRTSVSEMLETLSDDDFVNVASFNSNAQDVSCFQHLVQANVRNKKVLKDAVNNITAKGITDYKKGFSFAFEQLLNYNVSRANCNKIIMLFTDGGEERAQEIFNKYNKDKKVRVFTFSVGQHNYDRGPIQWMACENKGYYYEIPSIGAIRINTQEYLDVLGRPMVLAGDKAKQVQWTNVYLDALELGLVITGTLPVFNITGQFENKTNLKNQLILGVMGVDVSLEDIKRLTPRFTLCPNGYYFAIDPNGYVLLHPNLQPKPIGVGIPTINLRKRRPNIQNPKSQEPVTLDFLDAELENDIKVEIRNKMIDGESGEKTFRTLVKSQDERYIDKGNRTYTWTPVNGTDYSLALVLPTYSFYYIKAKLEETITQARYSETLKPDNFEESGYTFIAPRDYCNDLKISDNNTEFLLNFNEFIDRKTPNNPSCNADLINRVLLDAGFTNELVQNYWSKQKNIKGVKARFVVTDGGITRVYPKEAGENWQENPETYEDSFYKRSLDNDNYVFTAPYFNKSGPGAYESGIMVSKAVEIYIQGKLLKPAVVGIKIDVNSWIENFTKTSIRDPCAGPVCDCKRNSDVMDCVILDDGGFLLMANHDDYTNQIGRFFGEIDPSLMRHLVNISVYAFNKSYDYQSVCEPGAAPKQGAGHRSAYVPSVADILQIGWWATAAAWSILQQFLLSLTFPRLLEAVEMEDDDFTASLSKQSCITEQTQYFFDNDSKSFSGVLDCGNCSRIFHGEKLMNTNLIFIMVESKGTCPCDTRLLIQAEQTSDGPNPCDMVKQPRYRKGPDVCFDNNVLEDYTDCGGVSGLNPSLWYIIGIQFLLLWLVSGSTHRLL
T1 sequence (P54284 whole entry, further chain): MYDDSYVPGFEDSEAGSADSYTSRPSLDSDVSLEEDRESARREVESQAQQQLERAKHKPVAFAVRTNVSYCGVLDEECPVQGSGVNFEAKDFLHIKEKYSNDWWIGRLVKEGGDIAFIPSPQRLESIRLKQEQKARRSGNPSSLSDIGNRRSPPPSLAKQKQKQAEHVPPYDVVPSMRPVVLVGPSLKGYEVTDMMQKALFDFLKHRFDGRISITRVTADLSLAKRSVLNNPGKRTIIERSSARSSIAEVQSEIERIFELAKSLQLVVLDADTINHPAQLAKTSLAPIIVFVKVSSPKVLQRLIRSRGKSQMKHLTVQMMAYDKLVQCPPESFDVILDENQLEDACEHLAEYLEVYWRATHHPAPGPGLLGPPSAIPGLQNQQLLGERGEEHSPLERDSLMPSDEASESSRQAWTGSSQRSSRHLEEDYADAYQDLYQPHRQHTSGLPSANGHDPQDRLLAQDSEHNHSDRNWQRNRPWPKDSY
Assay type: cell-based
Outline: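 Channel block was read as the baseline-normalized peak Ca²⁺ signal (Fluo-4, 480/535 nm) after a high-KCl depolarizing addition (210 mM KCl buffer). Beforehand, compound sat 15 min at 25 °C on HEK293 cells carrying human CaV2.2, α2δ/β subunits and Kir2.3, in pH 7.4 buffer with 30 mM KCl.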

First: Cc1c(-c2ccc(Cl)cc2)c(C(=O)N(C)CC2CCCCO2)n(Cc2ccccc2)c1C(F)(F)F (centres unmarked) [SC-138, 1-Benzyl-3-(4-chlorophenyl)-N,4-dimethyl-N-(tetrahydro-pyran-2-yl-methyl)-5-(trifluoromethyl)-1H-pyrrole-2-carboxylic acid amide]
Second: Cc1c(-c2ccc(Cl)cc2F)c(C(=O)N(C)CC2CCCO2)n(Cc2ccccc2)c1C(F)(F)F (centres unmarked) [SC-165, 1-Benzyl-3-(4-chloro-2-fluoro-phenyl)-N,4-dimethyl-N-(tetrahydro-furan-2-yl-methyl)-5-(trifluoromethyl)-1H-pyrrole-2-carboxylic acid amide]
The inhibition at 3 µM of the first is lower: 75 to 95% for the first, > 95% for the second.

Cc1c(-c2ccc(Cl)cc2)c(C(=O)N(C)CC(C)(C)CN(C)CCN2CCCC2)n(Cc2ccccc2)c1C(F)(F)F [SC-139, 1-Benzyl-3-(4-chlorophenyl)-N-[2,2-dimethyl-3-[methyl-(2-pyrrolidin-1-yl-ethyl)-amino]-propyl]-N,4-dimethyl-5-(trifluoromethyl)-1H-pyrrole-2-carboxylic acid amide] and Cc1c(-c2ccc(Cl)cc2)c(C(=O)N(C)C(C)C)n(Cc2ccccc2)c1C(F)(F)F [SC-149, 1-Benzyl-3-(4-chlorophenyl)-N-isopropyl-N,4-dimethyl-5-(trifluoromethyl)-1H-pyrrole-2-carboxylic acid amide] cannot be ordered by inhibition at 3 µM: > 95% for the first, > 95% for the second.

Cc1cc(CN(C)C(=O)c2c(-c3ccc(Cl)cc3)c(C)c(C(F)(F)F)n2Cc2ccccc2)on1 [SC-140, 1-Benzyl-3-(4-chlorophenyl)-N,4-dimethyl-N-[(3-methyl-isoxazol-5-yl)-methyl]-5-(trifluoromethyl)-1H-pyrrole-2-carboxylic acid amide] and Cc1cc(CN(C)C(=O)c2c(-c3ccc(Cl)cc3)c(C)c(C(F)(F)F)n2Cc2ccccc2)no1 [SC-142, 1-Benzyl-3-(4-chlorophenyl)-N,4-dimethyl-N-[(5-methyl-isoxazol-3-yl)-methyl]-5-(trifluoromethyl)-1H-pyrrole-2-carboxylic acid amide] cannot be ordered by inhibition at 3 µM: > 95% for the first, > 95% for the second.

First: Cc1c(-c2ccc(Cl)cc2)c(C(=O)N(C)C(C)CS(C)(=O)=O)n(Cc2ccccc2)c1C(F)(F)F (centres unmarked) [SC-141, 1-Benzyl-3-(4-chlorophenyl)-N,4-dimethyl-N-(1-methyl-2-methylsulfonyl-ethyl)-5-(trifluoromethyl)-1H-pyrrole-2-carboxylic acid amide]
Second: Cc1c(-c2ccc(Cl)cc2)c(C(=O)NC(C)C)n(Cc2ccccc2)c1C(F)(F)F [SC-150, 1-Benzyl-3-(4-chlorophenyl)-N-isopropyl-4-methyl-5-(trifluoromethyl)-1H-pyrrole-2-carboxylic acid amide]
The inhibition at 3 µM of the first is higher: > 95% for the first, 75 to 95% for the second.

Cc1nnc(CN(C)C(=O)c2c(-c3ccc(Cl)cc3)c(C)c(C(F)(F)F)n2Cc2ccccc2)o1 [SC-143, 1-Benzyl-3-(4-chlorophenyl)-N,4-dimethyl-N-[(5-methyl-[1,3,4]oxadiazol-2-yl)-methyl]-5-(trifluoromethyl)-1H-pyrrole-2-carboxylic acid amide] and Cc1cnc(CN(C)C(=O)c2c(-c3ccc(Cl)cc3)c(C)c(C(F)(F)F)n2Cc2ccccc2)cn1 [SC-151, 1-Benzyl-3-(4-chlorophenyl)-N,4-dimethyl-N-[(5-methyl-pyrazin-2-yl)-methyl]-5-(trifluoromethyl)-1H-pyrrole-2-carboxylic acid amide] cannot be ordered by inhibition at 3 µM: > 95% for the first, > 95% for the second.

First: Cc1c(-c2ccc(Cl)cc2)c(C(=O)N(C)Cc2ccncn2)n(Cc2ccccc2)c1C(F)(F)F [SC-144, 1-Benzyl-3-(4-chlorophenyl)-N,4-dimethyl-N-(pyrimidin-4-yl-methyl)-5-(trifluoromethyl)-1H-pyrrole-2-carboxylic acid amide]
Second: Cc1c(-c2ccc(Cl)cc2)c(C(=O)N(C)Cc2cnccn2)n(Cc2ccccc2)c1C(F)(F)F [SC-146, 1-Benzyl-3-(4-chlorophenyl)-N,4-dimethyl-N-(pyrazin-2-yl-methyl)-5-(trifluoromethyl)-1H-pyrrole-2-carboxylic acid amide]
The inhibition at 3 µM of the first is higher: > 95% for the first, 75 to 95% for the second.

COC1CCN(C(=O)c2c(-c3ccc(Cl)cc3)c(C)c(C(F)(F)F)n2Cc2ccccc2)CC1 [SC-145, [1-Benzyl-3-(4-chlorophenyl)-4-methyl-5-(trifluoromethyl)-1H-pyrrol-2-yl]-(4-methoxy-piperidin-1-yl)-methanone] and Cc1c(-c2ccc(Cl)cc2F)c(C(=O)N2CCC(CO)C2)n(Cc2ccccc2)c1C(F)(F)F (centres unmarked) [SC-166, [1-Benzyl-3-(4-chloro-2-fluoro-phenyl)-4-methyl-5-(trifluoromethyl)-1H-pyrrol-2-yl]-[3-(hydroxymethyl)-pyrrolidin-1-yl]-methanone] cannot be ordered by inhibition at 3 µM: > 95% for the first, > 95% for the second.

First: Cc1c(-c2ccc(Cl)cc2)c(C(=O)N(C)Cc2ccnc(N(C)C)n2)n(Cc2ccccc2)c1C(F)(F)F [SC-147, 1-Benzyl-3-(4-chlorophenyl)-N-[(2-dimethylamino-pyrimidin-4-yl)-methyl]-N,4-dimethyl-5-(trifluoromethyl)-1H-pyrrole-2-carboxylic acid amide]
Second: Cc1c(-c2ccc(Cl)cc2)c(C(=O)N(C)Cc2cnc(N(C)C)nc2)n(Cc2ccccc2)c1C(F)(F)F [SC-152, 1-Benzyl-3-(4-chlorophenyl)-N-[(2-dimethylamino-pyrimidin-5-yl)-methyl]-N,4-dimethyl-5-(trifluoromethyl)-1H-pyrrole-2-carboxylic acid amide]
The inhibition at 3 µM of the first is lower: 75 to 95% for the first, > 95% for the second.

Cc1c(-c2ccc(Cl)cc2)c(C(=O)N(C)Cc2nccn2C)n(Cc2ccccc2)c1C(F)(F)F [SC-148, 1-Benzyl-3-(4-chlorophenyl)-N,4-dimethyl-N-[(1-methyl-1H-imidazol-2-yl)-methyl]-5-(trifluoromethyl)-1H-pyrrole-2-carboxylic acid amide] and Cc1c(-c2ccc(Cl)cc2F)c(C(=O)N(C)CCCS(C)(=O)=O)n(Cc2ccccc2)c1C(F)(F)F [SC-161, 1-Benzyl-3-(4-chloro-2-fluoro-phenyl)-N,4-dimethyl-N-(3-methylsulfonyl-propyl)-5-(trifluoromethyl)-1H-pyrrole-2-carboxylic acid amide] cannot be ordered by inhibition at 3 µM: > 95% for the first, > 95% for the second.

First: Cc1c(-c2ccc(Cl)cc2F)c(C(=O)N2CC(O)C2)n(Cc2ccccc2)c1C(F)(F)F [SC-154, [1-Benzyl-3-(4-chloro-2-fluoro-phenyl)-4-methyl-5-(trifluoromethyl)-1H-pyrrol-2-yl]-(3-hydroxy-azetidin-1-yl)-methanone]
Second: Cc1c(-c2ccc(Cl)cc2F)c(C(=O)N2CCOC(C)(C)C2)n(Cc2ccccc2)c1C(F)(F)F [SC-155, [1-Benzyl-3-(4-chloro-2-fluoro-phenyl)-4-methyl-5-(trifluoromethyl)-1H-pyrrol-2-yl]-(2,2-dimethyl-morpholin-4-yl)-methanone]
The inhibition at 3 µM of the first is lower: 75 to 95% for the first, > 95% for the second.

Cc1c(-c2ccc(Cl)cc2F)c(C(=O)N(C)C2CCOCC2)n(Cc2ccccc2)c1C(F)(F)F [SC-156, 1-Benzyl-3-(4-chloro-2-fluoro-phenyl)-N,4-dimethyl-N-tetrahydro-pyran-4-yl-5-(trifluoromethyl)-1H-pyrrole-2-carboxylic acid amide] and Cc1c(-c2ccc(Cl)cc2F)c(C(=O)N(C)C2CC2)n(Cc2ccccc2)c1C(F)(F)F [SC-159, 1-Benzyl-3-(4-chloro-2-fluoro-phenyl)-N-cyclopropyl-N,4-dimethyl-5-(trifluoromethyl)-1H-pyrrole-2-carboxylic acid amide] cannot be ordered by inhibition at 3 µM: > 95% for the first, > 95% for the second.

Compared with Cc1c(-c2ccc(Cl)cc2F)c(C(=O)N[C@H](C)C(C)(C)C)n(Cc2ccccc2)c1C(F)(F)F [SC-158, 1-Benzyl-3-(4-chloro-2-fluoro-phenyl)-4-methyl-5-(trifluoromethyl)-N-[(1R)-1,2,2-trimethyl-propyl]-1H-pyrrole-2-carboxylic acid amide], Cc1c(-c2ccc(Cl)cc2F)c(C(=O)N(C)CC(C)(C)S(C)(=O)=O)n(Cc2ccccc2)c1C(F)(F)F [SC-168, 1-Benzyl-3-(4-chloro-2-fluoro-phenyl)-N,4-dimethyl-N-(2-methyl-2-methylsulfonyl-propyl)-5-(trifluoromethyl)-1H-pyrrole-2-carboxylic acid amide] is higher in inhibition at 3 µM: 75 to 95% for the first, > 95% for the second.

Cc1c(-c2ccc(Cl)cc2F)c(C(=O)N(C)C2CCS(=O)(=O)CC2)n(Cc2ccccc2)c1C(F)(F)F [SC-160, 1-Benzyl-3-(4-chloro-2-fluoro-phenyl)-N-(1,1-dioxo-thian-4-yl)-N,4-dimethyl-5-(trifluoromethyl)-1H-pyrrole-2-carboxylic acid amide] and Cc1c(-c2ccc(Cl)cc2F)c(C(=O)N(C)CC2CCOC2)n(Cc2ccccc2)c1C(F)(F)F (centres unmarked) [SC-167, 1-Benzyl-3-(4-chloro-2-fluoro-phenyl)-N,4-dimethyl-N-(tetrahydro-furan-3-yl-methyl)-5-(trifluoromethyl)-1H-pyrrole-2-carboxylic acid amide] cannot be ordered by inhibition at 3 µM: > 95% for the first, > 95% for the second.

Cc1c(-c2ccc(Cl)cc2F)c(C(=O)N2CCCC2CS(C)(=O)=O)n(Cc2ccccc2)c1C(F)(F)F (centres unmarked) [SC-162, [1-Benzyl-3-(4-chloro-2-fluoro-phenyl)-4-methyl-5-(trifluoromethyl)-1H-pyrrol-2-yl]-[2-(methylsulfonyl-methyl)-pyrrolidin-1-yl]-methanone] and Cc1c(-c2ccc(Cl)cc2F)c(C(=O)NCCS(C)(=O)=O)n(Cc2ccccc2)c1C(F)(F)F [SC-163, 1-Benzyl-3-(4-chloro-2-fluoro-phenyl)-4-methyl-N-(2-methylsulfonyl-ethyl)-5-(trifluoromethyl)-1H-pyrrole-2-carboxylic acid amide] cannot be ordered by inhibition at 3 µM: > 95% for the first, > 95% for the second.

In the case of Cc1c(-c2ccc(Cl)cc2F)c(C(=O)N(C)CCC2CCCO2)n(Cc2ccccc2)c1C(F)(F)F (centres unmarked) [SC-164, 1-Benzyl-3-(4-chloro-2-fluoro-phenyl)-N,4-dimethyl-N-(2-tetrahydro-furan-2-yl-ethyl)-5-(trifluoromethyl)-1H-pyrrole-2-carboxylic acid amide], the inhibition at 3 µM was > 95%.
